Like-named read-outs stand apart in the source and are kept apart here.
Key:
C. elegans = C. elegans lifespan assays (liquid and plate); assay type: in vivo, Caenorhabditis elegans; conditions: for ILS at 60 µM / ILS at 66 µM: Caenorhabditis elegans; for O = Life span- extending scores in worms: score scale 0 to 2, 4 to 6 independent trials; for M = Lifespan-extending scores in worms: summary score; for ILS at 66 µM / Lifespan assay in liquid / Lifespan assay on plates: at 66 uM; for Extension of C. elegans' lifespan (qualitative): in at least 3 to 4 trials, group range ~10% to ~50%
[1] = system: PC12 cells expressing poly(Q)103-Htt-EGFP; assay: Poly(Q) toxicity & viability analysis (cellular model of Huntington's disease); assay type: cell-based, rat; conditions: for M = Huntington's poly-Q toxicity attenuation: score; for K = Huntington's poly-Q toxicity attenuation: summary score
In short: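 PC12 cells stably carrying inducible poly(Q)103-Htt-EGFP, whose induced expression causes aggregation and toxicity. Viability read 48 hrs later as ATP content by CellTiter-Glo.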

[2] = system: phosphorylated γH2A.X and TP53BP1; assay: DNA damage marker analysis (immuno-staining); conditions: for activity at 10 µM: Homo sapiens, WI-38, 24 h
In short: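 WI-38 cells were cultured 24 h, then treated with compounds for 24 h; H2O2 (700 μM, 3 h) and doxorubicin (300 nM, 24 h) served as DNA-damage controls. After fixation, cells were immunostained for phospho-γH2A.X (Ser-139) and phospho-TP53BP1 (Ser-1778), counterstained with DAPI, and imaged by automated high-content microscopy.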

FOXO3 = FOXO3 siRNA knockdown: dependency for H2O2-resistance; assay type: cell-based, human
[3] = 60 μM, in liquid, wild type, with FuDR, 1.0 × 10^9 bacteria/ml, read-out: relative change of mean lifespan vs control, Trial 1
[4] = 60 μM, in liquid, wild type, with FuDR, 2.5 × 10^9 bacteria/ml, read-out: relative change of mean lifespan vs control, Trial 2
[5] = 60 μM, on plate, CF512 temperature-sensitive sterile animals, without FuDR, 2.0 × 10^10 bacteria/ml, read-out: relative change of mean lifespan vs control, Trial 3
[6] = Assay 2(z), 1.0 × 10^9 bacteria/ml, wild type + FuDR (2012 July), read-out: Lifespan assay in liquid
[7] = Assay 3(aa), 2.5 × 10^9 bacteria/ml, wild type + FuDR, read-out: Lifespan assay in liquid
[8] = Assay 4(ab), 2.0 × 10^10 bacteria/ml, CF512 worms, no FuDR, read-out: Lifespan assay on plates
[9] = read-out: Experiment 1, H2A.X-P DNA damage foci staining (no H2O2 stress treatment), at 10 uM
[10] = read-out: Experiment 2, H2A.X-P DNA damage foci staining (no H2O2 stress treatment), at 10 uM
[11] = read-out: Experiment 2, H2A.X-P DNA damage foci staining (under H2O2 stress treatment), at 10 uM
[12] = read-out: Experiment 2, TP53BP1-P DNA damage foci staining (no H2O2 stress treatment), at 10 uM
[13] = read-out: Experiment 2, TP53BP1-P DNA damage foci staining (under H2O2 stress treatment), at 10 uM
[14] = Experiment 2, WI-38 cells, 10 μM, 24 hrs, no H2O2, normalized marker-positive fraction, n = 3
[15] = Experiment 2, WI-38 cells, 10 μM, 24 hrs, under H2O2 stress, normalized marker-positive fraction, n = 3

Compound | ILS at 60 µM (C. elegans; [3]) | ILS at 60 µM (C. elegans; [4]) | ILS at 60 µM (C. elegans; [5]) | ILS at 66 µM (C. elegans; [6]) | ILS at 66 µM (C. elegans; [7]) | ILS at 66 µM (C. elegans; [8]) | O = Life span- extending scores in worms (C. elegans) | M = Lifespan-extending scores in worms (C. elegans) | M = Huntington's poly-Q toxicity attenuation [1] | K = Huntington's poly-Q toxicity attenuation [1] | activity at 10 µM [2, 9] | activity at 10 µM [2, 10] | activity at 10 µM [2, 11] | activity at 10 µM [2, 12] | activity at 10 µM [2, 13] | P = Potential DNA-damaging ([2]; human, 24 h) | R = Potential DNA damaging ([2]; human, 24 h) | I = FOXO3-dependency for H2O2-resistance (FOXO3; score) | I = FOXO3-dependency for H2O2-resistance (FOXO3; summary score) | Extension of C. elegans' lifespan (qualitative) (C. elegans) | further results
O=C(Nc1nc(C23CC4CC(CC(C4)C2)C3)cs1)C(c1ccccc1)c1ccccc1 [O10] | 5.9% | -6.2% | 9.5% | 5.9% | -6.2% | 9.5% | 0 | 0 | 0 | 0 | 102% | 71.5% | 153% | 135% | 498% | 0 | 0 | 0 | 0 | – | –
COc1cc2c(no[n+]2[O-])n2nnnc12 [O11] | – | – | – | – | – | – | 1 (1 for lifespan extension observed in 2 trials) | 1 (1 for lifespan extension observed in 2 trials) | 0 | 0 | – | – | – | – | – | – | – | 0 | 0 | – | relative change of mean lifespan vs control, Trial 1 (C. elegans; 60 μM, in liquid, wild type, with FuDR, 1.0 × 10^9 bacteria/ml): +14.9%; relative change of mean lifespan vs control, Trial 2 (C. elegans; 60 μM, in liquid, wild type, with FuDR, 2.5 × 10^9 bacteria/ml): +6.0%; relative change of mean lifespan vs control, Trial 4 (C. elegans; 60 μM, on plate, CF512 temperature-sensitive sterile animals, without FuDR, 1.0 × 10^11 bacteria/ml): +9.0%; relative change of mean lifespan vs control, Trial 3 (C. elegans; 60 μM, on plate, CF512 temperature-sensitive sterile animals, without FuDR, 2.0 × 10^10 bacteria/ml): +21.0%; Lifespan assay in liquid (C. elegans; Assay 2(z), 1.0 × 10^9 bacteria/ml, wild type + FuDR (2012 July)): +14.9%; Lifespan assay in liquid (C. elegans; Assay 3(aa), 2.5 × 10^9 bacteria/ml, wild type + FuDR): +6.0%; Lifespan assay on plates (C. elegans; Assay 4(ab), 2.0 × 10^10 bacteria/ml, CF512 worms, no FuDR): +21.0%; Lifespan assay on plates (C. elegans; Assay 5(ac), 1.0 × 10^11 bacteria/ml, CF512 worms, no FuDR): +9.0%; Percentage of both γH2A.X- and TP53BP1-positive cells (DNA damage markers) ([2]; 10 μM, 24 hrs, absence of H2O2): did not appear to increase both; Experiment 1, H2A.X-P DNA damage foci staining (no H2O2 stress treatment), at 10 uM ([2]; Experiment 1, WI-38 cells, 10 μM, 24 hrs, no H2O2, normalized marker-positive fraction, n = 3): 83.1%,; Experiment 2, H2A.X-P DNA damage foci staining (no H2O2 stress treatment), at 10 uM [2, 14]: 91.2%,; Experiment 2, TP53BP1-P DNA damage foci staining (no H2O2 stress treatment), at 10 uM [2, 14]: 154.0%,; Experiment 2, H2A.X-P DNA damage foci staining (under H2O2 stress treatment), at 10 uM [2, 15]: 151.7%,; Experiment 2, TP53BP1-P DNA damage foci staining (under H2O2 stress treatment), at 10 uM [2, 15]: 560.5%,; R = Potential DNA damaging ([2]; negative point, cultured human cells): 0; P = Potential DNA-damaging ([2]; summary score): 0
CCCC(=O)Nc1ccc(-c2cn3cccc(C)c3n2)cc1 [O12] | 36.8% | 9.6% | 6.6% | 36.8% | 9.6% | 6.6% | 2 (2 for observed in more than 2 trials) | 2 (2 for observed in more than 2 trials) | 0 | 0 | 106% | 88% | 113% | 142% | 523% | 0 | 0 | 0 | 0 | could extend animal's lifespan | –
O=C(c1ccc([N+](=O)[O-])o1)N1CCc2ccccc21 [O13] | 32.7% | 10.3% | 27.3% | 32.7% | 10.3% | 27.3% | 2 (2 for observed in more than 2 trials) | 2 (2 for observed in more than 2 trials) | 0 | 0 | 145% | 98.3% | 152% | 238% | 673% | 0 | 0 | 0 | 0 | could extend animal's lifespan | relative change of mean lifespan vs control, Trial 6 (confirmative) (C. elegans; 60 μM, on plate, temperature-sensitive sterile animals, without FuDR, 1.0 × 10^11 bacteria/ml): +15.3%; relative change of mean lifespan vs control, Trial 5 (confirmative) (C. elegans; 60 μM, on plate, temperature-sensitive sterile animals, without FuDR, 2.0 × 10^10 bacteria/ml): +8.4%; Lifespan, average increase (C. elegans; 4 or more trials): 18.2%; ILS at 60 µM (C. elegans; 60 μM, on plate, CF512 temperature-sensitive sterile animals, without FuDR, 1.0 × 10^11 bacteria/ml, read-out: relative change of mean lifespan vs control, Trial 4): 15%; ILS at 66 µM (C. elegans; Assay 5(ac), 1.0 × 10^11 bacteria/ml, CF512 worms, no FuDR, read-out: Lifespan assay on plates): 15%; ILS at 66 µM (C. elegans; Assay 6(ad), 2.0 × 10^10 bacteria/ml, CF512 worms, no FuDR, read-out: Lifespan assay on plates): 8.4%; ILS at 66 µM (C. elegans; Assay 7(ae), 1.0 × 10^11 bacteria/ml, CF512 worms, no FuDR, read-out: Lifespan assay on plates): 15.3%; Lifespan, mean (FIG. 6B) (C. elegans; temperature-sensitive sterile rollers, on plate, without FuDR, 25° C. then ~22° C., control 18.4±0.4): 23.4±0.4; Lifespan increase (FIG. 6A) (C. elegans; wild-type, in liquid, with FuDR, 20° C., ~60 μM): ~33.2%; Lifespan, mean±SD (FIG. 6A) (C. elegans; wild-type, in liquid, with FuDR, 20° C., ~60 μM, control 21.1±0.5): 28.1±1.1
Oc1ncnc2sc3c(c12)CCC3 [O14] | 13.7% | 5.8% | 11.3% | 13.7% | 5.8% | 11.3% | 2 (2 for observed in more than 2 trials) | 2 (2 for observed in more than 2 trials) | 0 | 0 | 116% | 85.3% | 221% | 159% | 254% | 0 | 0 | 0 | 0 | could extend animal's lifespan | Lifespan extension of C. elegans (C. elegans; across independent trials): ≥ 10%; Trials with lifespan extension (C. elegans; positive of total trials): 3 of 3
